# Results published in patent US10968215B2 (SHANGHAI HAIHE PHARMACEUTICAL CO., LTD., priority 2016, dated 2021).
# Target: PRC2 complex (EZH2 Y641F/EED/SUZ12/RbAp48/AEBP2) (Homo sapiens (Human), UniProt Q15910, Y641F)
# Test: Activity of a compound to PRC2 complex (EZH2 Y641F), HTRF
# Conditions: not given
# PRC2 complex (EZH2 Y641F/EED/SUZ12/RbAp48/AEBP2), sequence (Q15910 whole entry Y641F): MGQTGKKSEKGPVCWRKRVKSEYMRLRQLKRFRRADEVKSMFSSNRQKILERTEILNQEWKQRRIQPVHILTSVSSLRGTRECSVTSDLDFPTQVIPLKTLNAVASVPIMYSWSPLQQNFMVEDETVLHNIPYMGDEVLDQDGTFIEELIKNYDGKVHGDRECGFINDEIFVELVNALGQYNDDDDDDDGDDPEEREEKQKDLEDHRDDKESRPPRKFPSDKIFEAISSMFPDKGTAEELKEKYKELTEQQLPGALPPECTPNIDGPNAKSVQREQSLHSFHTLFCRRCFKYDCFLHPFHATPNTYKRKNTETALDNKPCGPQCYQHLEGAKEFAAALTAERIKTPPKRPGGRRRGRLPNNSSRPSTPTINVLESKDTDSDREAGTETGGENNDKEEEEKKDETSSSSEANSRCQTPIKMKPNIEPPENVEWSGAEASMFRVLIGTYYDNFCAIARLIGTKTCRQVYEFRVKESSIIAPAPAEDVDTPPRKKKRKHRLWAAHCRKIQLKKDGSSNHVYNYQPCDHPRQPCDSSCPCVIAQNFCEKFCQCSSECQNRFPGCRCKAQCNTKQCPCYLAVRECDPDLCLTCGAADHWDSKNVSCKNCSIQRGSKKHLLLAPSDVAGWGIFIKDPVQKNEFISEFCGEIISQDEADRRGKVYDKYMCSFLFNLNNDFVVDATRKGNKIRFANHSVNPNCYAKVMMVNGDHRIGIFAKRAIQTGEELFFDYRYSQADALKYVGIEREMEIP
# PRC2 complex (EZH2 Y641F/EED/SUZ12/RbAp48/AEBP2), sequence (O75530 whole entry partner): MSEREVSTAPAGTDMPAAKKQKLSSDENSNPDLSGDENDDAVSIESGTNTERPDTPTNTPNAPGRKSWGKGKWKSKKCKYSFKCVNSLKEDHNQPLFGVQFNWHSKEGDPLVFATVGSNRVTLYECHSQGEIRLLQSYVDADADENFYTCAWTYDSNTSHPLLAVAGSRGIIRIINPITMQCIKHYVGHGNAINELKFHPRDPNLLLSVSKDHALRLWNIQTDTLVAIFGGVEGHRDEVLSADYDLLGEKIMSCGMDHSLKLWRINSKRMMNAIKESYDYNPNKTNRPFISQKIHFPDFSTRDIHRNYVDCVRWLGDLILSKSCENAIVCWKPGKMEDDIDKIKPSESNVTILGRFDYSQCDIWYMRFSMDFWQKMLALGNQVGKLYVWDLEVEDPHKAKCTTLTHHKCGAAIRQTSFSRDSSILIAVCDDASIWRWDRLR
# PRC2 complex (EZH2 Y641F/EED/SUZ12/RbAp48/AEBP2), sequence (Q15022 whole entry partner): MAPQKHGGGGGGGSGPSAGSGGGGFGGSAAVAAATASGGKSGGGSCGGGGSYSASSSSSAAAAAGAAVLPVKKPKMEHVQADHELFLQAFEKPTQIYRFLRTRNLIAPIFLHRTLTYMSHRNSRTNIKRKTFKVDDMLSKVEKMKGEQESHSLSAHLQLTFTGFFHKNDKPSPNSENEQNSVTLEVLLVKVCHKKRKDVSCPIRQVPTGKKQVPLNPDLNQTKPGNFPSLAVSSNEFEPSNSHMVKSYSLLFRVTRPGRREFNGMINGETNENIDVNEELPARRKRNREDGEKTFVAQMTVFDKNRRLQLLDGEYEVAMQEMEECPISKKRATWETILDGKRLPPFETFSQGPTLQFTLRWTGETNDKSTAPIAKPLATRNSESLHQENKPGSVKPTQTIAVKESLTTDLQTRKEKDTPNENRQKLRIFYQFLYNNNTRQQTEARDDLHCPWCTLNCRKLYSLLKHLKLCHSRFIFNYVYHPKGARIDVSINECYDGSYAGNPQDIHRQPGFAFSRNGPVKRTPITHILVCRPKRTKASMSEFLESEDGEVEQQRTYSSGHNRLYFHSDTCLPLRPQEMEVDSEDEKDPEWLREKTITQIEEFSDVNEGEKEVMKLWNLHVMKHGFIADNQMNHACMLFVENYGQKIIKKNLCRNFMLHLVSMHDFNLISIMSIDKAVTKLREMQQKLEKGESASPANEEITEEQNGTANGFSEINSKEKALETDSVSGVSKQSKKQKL
# PRC2 complex (EZH2 Y641F/EED/SUZ12/RbAp48/AEBP2), sequence (Q09028 whole entry partner): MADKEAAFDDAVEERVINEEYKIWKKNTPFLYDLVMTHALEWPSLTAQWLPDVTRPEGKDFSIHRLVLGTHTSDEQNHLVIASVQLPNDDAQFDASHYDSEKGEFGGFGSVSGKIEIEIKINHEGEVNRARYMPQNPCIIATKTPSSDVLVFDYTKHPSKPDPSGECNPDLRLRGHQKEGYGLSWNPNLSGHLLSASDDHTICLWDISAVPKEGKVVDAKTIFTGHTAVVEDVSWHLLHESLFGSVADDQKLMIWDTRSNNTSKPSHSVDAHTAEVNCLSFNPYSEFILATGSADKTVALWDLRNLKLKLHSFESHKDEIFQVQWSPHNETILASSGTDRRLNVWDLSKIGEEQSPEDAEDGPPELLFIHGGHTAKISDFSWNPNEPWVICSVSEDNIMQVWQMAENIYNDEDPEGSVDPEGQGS
# PRC2 complex (EZH2 Y641F/EED/SUZ12/RbAp48/AEBP2), sequence (Q6ZN18 whole entry partner): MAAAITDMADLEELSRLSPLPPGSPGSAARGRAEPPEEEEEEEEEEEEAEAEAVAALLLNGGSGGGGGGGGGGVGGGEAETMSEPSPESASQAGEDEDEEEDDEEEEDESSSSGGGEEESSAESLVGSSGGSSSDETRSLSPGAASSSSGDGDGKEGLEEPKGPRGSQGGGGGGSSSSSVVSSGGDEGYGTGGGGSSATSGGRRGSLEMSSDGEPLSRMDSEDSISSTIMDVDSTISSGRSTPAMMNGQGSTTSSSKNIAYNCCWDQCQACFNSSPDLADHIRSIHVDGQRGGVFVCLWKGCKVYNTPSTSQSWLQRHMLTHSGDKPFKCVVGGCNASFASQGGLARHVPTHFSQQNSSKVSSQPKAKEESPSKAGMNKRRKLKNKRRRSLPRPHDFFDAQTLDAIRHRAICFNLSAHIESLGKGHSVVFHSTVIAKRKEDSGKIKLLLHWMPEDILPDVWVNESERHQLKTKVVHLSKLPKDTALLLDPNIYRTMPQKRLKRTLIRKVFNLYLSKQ
row,Structure (SMILES),IC50
1,"Cc1cc(C)c(CNC(=O)c2cc3cc(-c4cn(C)cn4)cn3c(C(C)N3CCOCC3)c2C)c(=O)[nH]1 (centres unmarked) [Example 52, N-((4,6-dimethyl-2-oxo-1,2-dihydropyridin-3-yl)methyl)-6-methyl-2-(1-methyl-1H-imidazole-4-yl)-5-(1-morpholineylethyl)indolizine-7-carboxamide]",100 to 1000 nM
2,"Cc1cc(C)c(CNC(=O)c2cc3c(-c4ccccc4)ccn3c(C(C)N3CCC(N(C)C)CC3)c2C)c(=O)[nH]1 (centres unmarked) [Example 127, N-((4,6-dimethyl-2-oxo-1,2-dihydropyridin-3-yl)methyl)-6-methyl-5-(4-dimethylaminopiperidinylethyl)-1-phenylindolizine-7-carboxamide]",< 100 nM
3,"COc1cc(C)[nH]c(=O)c1CNC(=O)c1cc2c(-c3ccn[nH]3)ccn2c(C(C)OCc2nccs2)c1C (centres unmarked) [Compound 191, N-((4-methoxy-6-methyl-2-oxo-1,2-dihydropyridin-3-yl)methyl)-6-methyl-1-(1H-pyrazol-5-yl)-5-(1-(thiazol-2-ylmethoxy)ethyl)indolizine-7-carboxamide]",< 100 nM
4,"CCN(c1c(C)c(C(=O)NCc2c(C)cc(C)[nH]c2=O)cc2cccn12)C1CCOCC1 [Example 56, N-((4,6-dimethyl-2-oxo-1,2-dihydropyridin-3-yl)methyl)-6-methyl-5-(ethyl(tetrahydro-2H-pyran-4-yl)amino)indolizine-7-carboxamide]",< 100 nM
5,"CCN(c1c(C)c(C(=O)NCc2c(C)cc(C)[nH]c2=O)cc2cc(Br)cn12)C1CCN(C(C)=O)CC1 [Example 62, 5-((1-acetylpiperidin-4-yl)(ethyl)amino)-2-bromo-N-((4,6-dimethyl-2-oxo-1,2-dihydropyridine-3-yl)methyl)-6-methylindolizine-7-carboxamide]",< 100 nM

# Same assay, conditions: read-out: IC50 (EZH2_Y641F); EZH2 Y641F PRC2 complex, HTRF; class symbols
row,IC50,Structure (SMILES)
1,< 100 nM,"Cc1cc(C)c(CNC(=O)c2cc3cc(-c4cncn4C)cn3c(C(C)N3CCC(N(C)C)CC3)c2C)c(=O)[nH]1 (centres unmarked) [Example 134, N-((4,6-dimethyl-2-oxo-1,2-dihydropyridin-3-yl)methyl)-5-(1-(4-(dimethylamino)piperidin-1-yl)ethyl)-6-methyl-2-(1-methyl-1H-imidazol-5-yl)indolizine-7-carboxamide]"
2,100 to 1000 nM,C=CCOC(C)c1c(C)c(C(=O)NCc2c(C)cc(C)[nH]c2=O)cc2cccn12 (centres unmarked) [Example 3]
3,100 to 1000 nM,"CCN(c1c(C)c(C(=O)NCc2c(C)cc(C)[nH]c2=O)cc2cc(-c3ccnn3C)cn12)C1CCOCC1 [Example 64, N-((4,6-dimethyl-2-oxo-1,2-dihydropyridin-3-yl)methyl)-5-(ethyl(tetrahydro-2H-pyran-4-yl)amino)-6-methyl-2-(4-morpholinephenyl)indolizine-7-carboxamide]"
4,< 100 nM,"COc1cc(C)[nH]c(=O)c1CNC(=O)c1cc2c(-c3ccccc3)ccn2c(C(C)N2CCOCC2)c1C (centres unmarked) [Example 131, N-((4-methoxy-6-methyl-2-oxo-1,2-dihydropyridin-3-yl)methyl)-6-methyl-5-(1-morpholinylethyl)-1-phenylindolizine-7-carboxamide]"
5,< 100 nM,"Cc1cc(C)c(CNC(=O)c2cc3c(Cl)ccn3c(C(C)N3CCOCC3)c2C)c(=O)[nH]1 (centres unmarked) [Example 27, 1-chloro-N-((4,6-dimethyl-2-oxo-1,2-dihydropyridin-3-yl)methyl)-6-methyl-5-(1-morphinolinylethyl)indolizine-7-carboxamide]"
6,< 100 nM,"CCN(c1c(C)c(C(=O)NCc2c(OC)cc(C)[nH]c2=O)cc2c(-c3ccnc(N(C)C)c3)ccn12)C1CCN(CC(F)(F)F)CC1 [Compound 203, 1-(2-(dimethylamino)pyridin-4-yl)-5-(ethyl(1-(2,2,2-trifluoroethyl)piperidin-4-yl)amino)-N-((4-methoxy-6-methyl-2-oxo-1,2-dihydropyridin-3-yl)methyl)-6-methylindolizine-7-carboxamide]"
7,< 100 nM,"COc1cc(C)[nH]c(=O)c1CNC(=O)c1cc2c(-c3c(C)noc3C)ccn2c(C(C)N2CCN(CC(F)(F)F)CC2)c1C (centres unmarked) [Compound 161, 1-(3,5-dimethylisoxazol-4-yl)-N-((4-methoxy-6-methyl-2-oxo-1,2-dihydropyridin-3-yl)methyl)-6-methyl-5-(1-(4-(2,2,2-trifluoroethyl)piperazin-1-yl)ethyl)indolizine-7-carboxamide]"
8,< 100 nM,"COc1cc(C)[nH]c(=O)c1CNC(=O)c1cc2c(-c3ccccc3)ccn2c(C(C)N2CCC(N(C)C)CC2)c1C (centres unmarked) [Example 129, N-((4,6-dimethyl-2-oxo-1,2-dihydropyridin-3-yl)methyl)-5-(1-(4-(dimethylamine)piperidine-1-yl)ethyl)-6-methyl-1-(1-methyl-1H-pyrazol-5-yl)indolizine-7-carboxamide]"
9,100 to 1000 nM,"Cc1cc(C)c(CNC(=O)c2cc3cc(Br)cn3c(C(C)N3CCC(C#N)CC3)c2C)c(=O)[nH]1 (centres unmarked) [Example 146, 2-bromo-5-(1-(4-cyanopiperidin-1-yl)ethyl)-N-((4,6-dimethyl-2-oxo-1,2-dihydropyridin-3-yl)methyl)-6-methylindolizine-7-carboxamide]"
10,1000 to 10000 nM,"CCOC(C)c1c(C)c(C(=O)NCc2c(C)cc(C)[nH]c2=O)cc2cccn12 (centres unmarked) [Example 2, N-((4,6-Dimethyl-2-oxo-1,2-dihydropyridin-3-yl)methyl)-5-(1-ethoxyethyl)-6-methylindolizine-7-carboxamide]"
11,< 100 nM,"Cc1cc(C)c(CNC(=O)c2cc3c(-c4ccccc4)ccn3c(C(C)N3CCOCC3)c2C)c(=O)[nH]1 (centres unmarked) [Example 82, N-((4,6-dimethyl-2-oxo-1,2-dihydropyridin-3-yl)methyl)-6-methyl-5-(1-morphinolinylethyl)-1-phenylindolizine-7-carboxamide]"
12,< 100 nM,"Cc1cc(C)c(CNC(=O)c2cc3c(-c4cnn(C5CCOCC5)c4)ccn3c(C(C)N3CCN(CC(F)(F)F)CC3)c2C)c(=O)[nH]1 (centres unmarked) [Compound 190, N-((4,6-dimethyl-2-oxo-1,2-dihydropyridin-3-yl)methyl)-6-methyl-1-(1-(tetrahydro-2H-pyran-4-yl)-1H-pyrazol-4-yl)-5-(1-(4-(2,2,2-trifluoroethyl)piperazin-1-yl)ethyl)indolizine-7-carb oxamide]"
13,100 to 1000 nM,"COc1cc(-c2ccn3c([C@H](C)N4CCN(CC(F)(F)F)CC4)c(C)c(C(=O)NCc4c(OC)cc(C)[nH]c4=O)cc23)ccn1 (single isomer, unassigned) [Compound 195, (S)—N-((4-methoxy-6-methyl-2-oxo-1,2-dihydropyridin-3-yl)methyl)-1-(2-methoxypyridin-4-yl)-6-methyl-5-(1-(4-(2,2,2-trifluoroethyl)piperazin-1-yl)ethyl)indolizine-7-carboxamide or (R)—N-((4-methoxy-6-methyl-2-oxo-1,2-dihydropyridin-3-yl)methyl)-1-(2-methoxypyridin-4-yl)-6-methyl-5-(1-(4-(2,2,2-trifluoroethyl)piperazin-1-yl)ethyl)indolizine-7-carboxamide]"

row,Structure (SMILES),IC50
1,"COC(=O)c1cc2cc(C(=O)NCc3c(C)cc(C)[nH]c3=O)c(C)c(C(C)N3CCOCC3)n2c1 (centres unmarked) [Example 125, methyl 7-(((4,6-dimethyl-2-oxo-1,2-dihydropyridin-3-yl)methyl)carbamoyl)-6-methyl-5-(1-morpholinylethyl)indolizine-2-carboxylate]",100 to 1000 nM
2,"Cc1cc(C)c(CNC(=O)c2cc3cc(-c4cccnc4)cn3c(C(C)N3CCOCC3)c2C)c(=O)[nH]1 (centres unmarked) [Example 33, N-((4,6-dimethyl-2-oxo-1,2-dihydropyridin-3-yl)methyl)-6-methyl-5-(1-morphinolinylethyl)-2-(pyridin-3-yl)indolizine-7-carboxamide]",< 100 nM
3,Cc1cc(C)c(CNC(=O)c2cc3cc(Br)cn3c(C(C)N3CCN(CCC(F)(F)F)CC3)c2C)c(=O)[nH]1 (centres unmarked) [Example 104],100 to 1000 nM
4,Cc1cc(C)c(CNC(=O)c2cc3cc(Cl)cn3c(C(C)N3CCC(N(C)C)CC3)c2C)c(=O)[nH]1 (centres unmarked) [Example 70],< 100 nM
5,Cc1cc(C)c(CNC(=O)c2cc3cccn3c(C(C)Oc3ccc(N(C)C)cc3)c2C)c(=O)[nH]1 (centres unmarked) [Example 22],1000 to 10000 nM
6,"Cc1cc(C)c(CNC(=O)c2cc3cc(-c4ccc5c(c4)OCO5)cn3c(C(C)N3CCOCC3)c2C)c(=O)[nH]1 (centres unmarked) [Example 31, 2-(benzo[d][1,3]dioxol-5-yl)-N-((4,6-dimethyl-2-oxo-1,2-dihydropyridine-3-yl)methyl)-6-methyl-5-(1-morphinolinylethyl)indolizin-7-carboxamide]",100 to 1000 nM
7,"Cc1cc(C)c(CNC(=O)c2cc3cc(-c4cccc(N5CCOCC5)c4)cn3c(C(C)N3CCOCC3)c2C)c(=O)[nH]1 (centres unmarked) [Example 36, N-((4,6-dimethyl-2-oxo-1,2-dihydropyridin-3-yl)methyl)-6-methyl-5-(1-morphinolinylethyl)-2-(3-morphinolinylphenyl)indolizine-7-carboxamide]",< 100 nM
8,Cc1cc(C)c(CNC(=O)c2cc3cc(Br)cn3c(C(C)Oc3ccc(N(C)C)cc3)c2C)c(=O)[nH]1 (centres unmarked) [Example 30],< 100 nM
9,"Cc1cc(C)c(CNC(=O)c2cc3cc(-c4nccs4)cn3c(C(C)N3CCOCC3)c2C)c(=O)[nH]1 (centres unmarked) [Example 50, N-((4,6-dimethyl-2-oxo-1,2-dihydropyridin-3-yl)methyl)-6-methyl-5-(1-morphinolinylethyl)-2-(thiazol-2-yl)indolizine-7-carboxamide]",< 100 nM
10,Cc1cc(C)c(CNC(=O)c2cc3cc(-c4ccc(N5CCN(C)CC5)nc4)cn3c(C(C)N3CCOCC3)c2C)c(=O)[nH]1 (centres unmarked) [Example 91],< 100 nM
11,"Cc1cc(C)c(CNC(=O)c2cc3cc(-c4ccc(N5CCNCC5)nc4)cn3c(C(C)N3CCOCC3)c2C)c(=O)[nH]1 (centres unmarked) [Example 90, N-((4,6-dimethyl-2-oxo-1,2-dihydropyridin-3-yl)methyl)-6-methyl-5-(1-morpholinoethyl)-2-(6-(piperazin-1-yl)pyridin-3-yl)indolizine-7-carboxamide]",1000 to 10000 nM
